How the values were obtained:
[1] = biological target: angiotensin II receptor (adrenal membranes); assay: Adrenal Glomerulosa Test System: binding of I^125-angiotensin II to adrenal membranes; conditions: displacement of 0.1 nM I^125-angiotensin II, rat adrenal membranes, 90 minutes, room temperature; KI by Cheng Prusoff equation; read-out: Adrenal Glomulosa (KI)
Protocol: (§1) As previously discussed, the compounds of Formula I are potent effective antagonists of angiotensin II. The ability of representative compounds of Formula I to block angiotensin II receptor binding was determined using the adrenal glomerulosa assay. The ability to antagonize angiotensin-induced vasoconstriction was evaluated in the rabbit aorta test system.
Binding of I^125 -angiotensin II to adrenal membranes was routinely carried out in 96-well filtration plates. Adrenal membranes were prepared from the capsular portion (glomerulosal layer attached) of rat adrenal glands by differential centrifugation. Briefly, capsules were homogenized in a solution containing sucrose, 250 mM; MgCl2, 1 mM; and tris, 5 mM at pH 7.5 and 4° C. using a polytron at setting 5 for 20 seconds. The homogenate was stirred, gently, for 15 minutes at 4° C. and then centrifuged 10 minutes, at 1000×g, 4° C. The supernatant was centrifuged 30 minutes, at 30,000×g, 4° C., and the resulting pellet resuspended in 50 mM tris. Membrane preparations were stored in aliquots at -70° C. until used. Binding of I^125 -angiotensin II to adrenal membranes was performed at room temperature for 90 minutes in 96-well plates containing a hydrophilic polyvinylidene fluoride membrane (0.45 μm, Millipore-GV multiscreen). Each 250 μincubate contained the following (final concentration): tris, 50 mM; NaCl, 120 mM; MgCl2, 5 mM; dithiothrietol 1 mM; bovine serum albumin, 0.05%; I^125 -angiotensin II, 0.1 nM; and adrenal membrane protein, 8-15 μg. Antagonists were added in concentrations from 10 nM to 100 μM. Non-specific binding was measured in the presence of 0.1 μM Sar1, Ile8 angiotensin II.
Binding was terminated by vacuum filtration. Receptor-ligand complex trapped on filters was washed 3 times with 300 μl ice-cold wash solution (tris, 50 mM; NaCl, 120 mM; MgCl2, 5 mM; dithiothrietol, 1 mM). Filter discs were dried, punched out and counted in a gamma counter at 52% efficiency. Specific binding represented 96% of total binding (approximately 150 fmol angiotensin II/mg protein). The molar concentration (IC50) of the inhibitor that displaced 50% of the binding of I^125 angiotensin II for each compound was calculated using a 4 parameter logistics model (NonLin, SAS Institute). Data are expressed as KI calculated using the Cheng Prusoff equation. See Cheng et al. Biochem. Pharmacol. 22: 3099 (1973).

[2] = biological target: T1, angiotensin-induced vasoconstriction (rabbit aorta) (Oryctolagus cuniculus, UniProt P34976); assay: Rabbit Aorta Test System: antagonism of angiotensin II contraction of aortic rings; set-up: species or system New Zealand white rabbits; conditions: contraction to AII 10^-10 to 10^-7 M, 30 minutes incubation with compound; pA2 = -log KB
T1 construct: The thoracic aortas were removed and cleaned of excess fat and connective tissue; from tissue; host or cells: thoracic aorta rings of New Zealand white rabbits (animals from Hazelton)
T1 sequence (P34976 1-359): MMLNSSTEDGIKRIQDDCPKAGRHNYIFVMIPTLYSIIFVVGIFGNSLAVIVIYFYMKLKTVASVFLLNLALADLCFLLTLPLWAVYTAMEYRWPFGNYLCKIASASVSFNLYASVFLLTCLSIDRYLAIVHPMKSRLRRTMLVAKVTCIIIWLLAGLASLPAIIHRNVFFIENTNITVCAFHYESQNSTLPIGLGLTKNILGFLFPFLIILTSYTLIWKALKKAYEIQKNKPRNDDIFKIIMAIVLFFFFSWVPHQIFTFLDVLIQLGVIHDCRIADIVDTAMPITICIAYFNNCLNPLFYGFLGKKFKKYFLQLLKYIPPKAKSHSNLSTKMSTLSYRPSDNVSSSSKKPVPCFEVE
Protocol: as §1
New Zealand white rabbits (Hazelton, 2-3 kg) were sacrificed by cervical dislocation. The thoracic aortas were removed and cleaned of excess fat and connective tissue. Rings of tissue (3 mm wide) were mounted in 10 ml tissue baths between 2 L-shaped stainless steel hooks. The lower hook was attached to a stationary rod. The upper hook was attached to a force displacement transducer (Grass model FT.03). The bath chambers were maintained at 37° C., aerated with 95% 02 /5% C02, and contained physiological solution of the following composition (mM): NaCl, 117; glucose, 5.6; NaH2 PO4, 1.0; MgS04, 0.7; KCl, 5.2; CaCl2, 1.8; NaHCO3, 26; and phentolamine HCl, 0.003.
Rings were equilibrated for 1 hour with 2 g of tension. During the equilibration period, the tissues were washed by overflow every 15 minutes. Rings were then exposed to 10^-8 M angiotensin II (AII) and were allowed to contract until a steady state was reached. Tissues were then washed every 15 minutes for 1 hour. This was repeated every hour until the AII response stabilized. A cumulative concentration response curve to AII (10^-10 to 10^-7 M) was then obtained. At the conclusion of the concentration response curve, tissues were washed every 2 minutes until baseline tension was reached, then every 15 minutes for 30 minutes. Compounds were added in a volume of 10 μl DMSO and allowed to incubate for 30 minutes before repeating the concentration response curve to AII. Contractions to AII were expressed as a percent of the maximum contraction obtained in the control curve (the first AII concentration response curve). EC50 's (concentration that contracted the tissues to 1/2 the control maximum) for each curve were calculated using a 4 parameter logistics model (NonLin, SAS Institute). Potency data for each compound tested are expressed as the pA2 (defined as-log KB, where KB =[molar concentration of antagonist]/[(EC50 AII with antagonist/EC50 AII without antagonist)-1]).

| Ki [1] | Kb [2] | SMILES |
| --- | --- | --- |
| 10.3 µM | 2000 nM | CCCCCCC(C(=O)NCC)n1cnc(NC(=O)c2ccccc2S(=O)(=O)O)c1 (stereo not drawn) [Example 1, N-Ethyl-2-[4-(2-sulfobenzoyl)amino-1H-imidazol-1-yl]octanoamide] |
| 8.2 µM | 794 nM | CCCCCCC(C(=O)NCCC)n1cnc(NC(=O)c2ccccc2S(=O)(=O)O)c1 (stereo not drawn) [Example 2, N-Propyl-2-[4-(2-sulfobenzoyl)amino-1H-imidazol-1-yl]octanoamide] |
| 9.6 µM | 3980 nM | CCCCCCC(C(=O)NCC(F)(F)F)n1cnc(NC(=O)c2ccccc2S(=O)(=O)O)c1 (stereo not drawn) [Example 3, N-(2,2,2-Trifluoroethyl)-2-[4-(2-sulfobenzoyl)amino-1H-imidazol-1-yl]octanoamide] |
| 12.1 µM | 1000 nM | CCCCCCC(C(=O)NC(C)(C)CO)n1cnc(NC(=O)c2ccccc2S(=O)(=O)O)c1 (stereo not drawn) [Example 4, N-[2-(1-Hydroxy-2-methyl)propyl]-2-[4-(2-sulfobenzoyl)amino-1H-imidazol-1-yl]octanoamide] |
| 178 µM | 501 nM | CCCCCCC(C(=O)N1CCNC1=O)n1cnc(NC(=O)c2ccccc2S(=O)(=O)O)c1 (stereo not drawn) [Example 5, 2-[[[1-[1-[(2-oxo-1-imidazolidinyl)carbonyl]heptyl]-1H-imidazol-4-yl]amino]carbonyl]benzenesulfonic acid] |
| 6.8 µM | 1580 nM | CCCCCCC(C(=O)Nc1ccccn1)n1cnc(NC(=O)c2ccccc2S(=O)(=O)O)c1 (stereo not drawn) [Example 7, N-(2-Pyridyl)-2-[4-(2-sulfobenzoyl)amino-1H-imidazol-1-yl]octanoamide] |
| 13 µM | 1580 nM | CCCCCCC(C(=O)Nc1ccccc1O)n1cnc(NC(=O)c2ccccc2S(=O)(=O)O)c1 (stereo not drawn) [Example 8, N-(2-Hydroxyphenyl)-2-[4-(2-sulfobenzoyl)amino-1H-imidazol-1-yl]octanoamide] |
| 12.4 µM | 251 nM | CCCCCCC(C(=O)Nc1ccccc1C(=O)O)n1cnc(NC(=O)c2ccccc2S(=O)(=O)O)c1 (stereo not drawn) [Example 9, N-(2-Carboxyphenyl)-2-[4-(2-sulfobenzoyl)amino-1H-imidazol-1-yl]octanoamide] |
| 2.93 µM | 63.1 nM | CCCCCCC(C(=O)O)n1cnc(NC(=O)c2cccc(O)c2S(=O)(=O)O)c1 (stereo not drawn) [Example 10, 2-[4-(3-Hydroxy-2-sulfobenzoyl)amino-1H-imidazol-1-yl]octanoic acid] |

— US5484780A, “Angiotensin II antagonists” (Eli Lilly and Company, priority 1994, dated 1996)
